From ChEMBL document CHEMBL2062517, “Design, synthesis, and antiviral activity of entry inhibitors that target the CD4-binding site of HIV-1” (J Med Chem, 2012)

Experiments:
Assay type in all cases: cell-based
[1] = Inhibition of X4-tropic HIV1 HXB2 gp120-mediated entry into human TZM-b1 cells expressing CD4,CXCR4,CCR5,luciferase and beta-galactosidase after 3 days by single cycle neutralization assay; conditions: Human immunodeficiency virus 1, HXB2, TZM-b1, 72 h
[2] = Inhibition of X4-tropic HIV1 3B gp120-mediated entry into human MT2 cells assessed as Inhibition of p24 production incubated overnight followed by compound wash-out measured after 4 days post-infection by multi-cycle neutralization assay; conditions: Human immunodeficiency virus 1, 3B, MT2, 96 h
[3] = Cytotoxicity against human TZM-b1 cells after 3 days by XTT assay; conditions: for CC50 at 72 h: TZM-b1 cells; for CC50: tzm-b1, 72 h
MT2 [4] = assay: (§1) Cytotoxicity against human MT2 cells after 4 days by XTT assay; conditions: mt2, 96 h
[5] = Cytotoxicity against human TZM-b1 cells at >84 uM after 3 days by XTT assay; conditions: tzm-b1, 72 h
[6] = Cytotoxicity against human TZM-b1 cells at >77.8 uM after 3 days by XTT assay; conditions: tzm-b1, 72 h
[7] = Cytotoxicity against human TZM-b1 cells at >74 uM after 3 days by XTT assay; conditions: tzm-b1, 72 h
MT2 [8] = assay: Cytotoxicity against human MT2 cells at >[…] after 4 days by XTT assay; conditions: mt2, 96 h
[9] = Cytotoxicity against human TZM-b1 cells at >22 uM after 3 days by XTT assay; conditions: tzm-b1, 72 h
[10] = Cytotoxicity against human TZM-b1 cells at >87 uM after 3 days by XTT assay; conditions: tzm-b1, 72 h
[11] = as §1; conditions: MT2 cells
[12] = Cytotoxicity against human TZM-b1 cells at >75.8 uM after 3 days by XTT assay; conditions: tzm-b1, 72 h
[13] = Cytotoxicity against human TZM-b1 cells at >60 uM after 3 days by XTT assay; conditions: tzm-b1, 72 h
[14] = Cytotoxicity against human TZM-b1 cells at >75.5 uM after 3 days by XTT assay; conditions: tzm-b1, 72 h
[15] = Cytotoxicity against human TZM-b1 cells at >90 uM after 3 days by XTT assay; conditions: tzm-b1, 72 h
[16] = Cytotoxicity against human TZM-b1 cells at >78.2 uM after 3 days by XTT assay; conditions: tzm-b1, 72 h
[17] = Cytotoxicity against human TZM-b1 cells at >85 uM after 3 days by XTT assay; conditions: tzm-b1, 72 h
[18] = Cytotoxicity against human TZM-b1 cells at >88 uM after 3 days by XTT assay; conditions: tzm-b1, 72 h
MT2 [19] = assay: Cytotoxicity against human MT2 cells at >88 uM after 4 days by XTT assay; conditions: mt2, 96 h
MT2 [20] = assay: Cytotoxicity against human MT2 cells at >62 uM after 4 days by XTT assay; conditions: mt2, 96 h

Structure (SMILES) | IC50 [1] [µM] | IC50 [2] [µM] | CC50 at 72 h [3] [µM] | CC50 (MT2 [4]) [µM] | further results
Cc1nc(C(NC(=O)C(=O)Nc2ccc(Cl)cc2)C2CCCNC2)sc1CCO (mixture of isomers) | 0.65 | 13.1 | 59.4 | > 78.5 | 
CC(=O)c1ccc(NC(=O)C(=O)NC(c2nc(C)c(CO)s2)C2CCCCN2)cc1 (mixture of isomers) | > 86 | 107 | > 86 | > 107 | 
CC(=O)N1CCCCC1C(NC(=O)C(=O)Nc1ccc(Cl)cc1)c1nc(C)c(CCO)s1 (mixture of isomers) | 19.7 | > 52 | > 84 |  | Activity [5]: 20%
Cc1ccc(NC(=O)C(=O)NC(c2nc(C)c(CCO)s2)C2CCCCN2)c(F)c1 (mixture of isomers) | > 78.8 | 45.8 | > 78.8 |  | 
Cc1nc(C(NC(=O)C(=O)Nc2ccc(F)c(Cl)c2)C2CCCCN2)sc1CO (mixture of isomers) | 6.5 | 9.5 | > 77.8 |  | Activity [6]: 0%
Cc1nc(C(NC(=O)C(=O)Nc2ccc(C(F)(F)F)cc2)C2CCCCN2)sc1CCO (stereo unspecified) | 4.9 | 17.4 | > 74 | > 39 | Activity [7]: 35%
Cc1nc(C(NC(=O)C(=O)Nc2ccc(Cl)cc2)C2CCCCN2)sc1CO (mixture of isomers) | 4.3 | 4.7 | > 22 | > 108 | Activity (MT2 [8]): 40%; Activity [9]: 10%
Cc1nc(C(NC(=O)C(=O)Nc2ccc(F)c(F)c2)C2CCCCN2)sc1CO (mixture of isomers) | 8.4 | 14 | > 87 |  | Activity [10]: 0%
Cc1nc(C(NC(=O)C(=O)Nc2ccc(F)cc2F)C2CCCCN2)sc1CO (mixture of isomers) | > 87 | 110 | > 87 | > 110 | 
Cc1nc(C(NC(=O)C(=O)Nc2ccc(F)cc2)C2CCCCN2)sc1CCO (mixture of isomers) | 22 | 21.6 | > 88 |  | CC50 at 96 h [11]: 109 µM
Cc1nc(C(NC(=O)C(=O)Nc2ccc(Cl)cc2)C2CCCNC2)sc1CO (mixture of isomers) | 1.4 | 12 | 60.2 | > 81 | 
Cc1nc(C(NC(=O)C(=O)Nc2ccc(F)c(Cl)c2)C2CCCCN2)sc1CCO (mixture of isomers) | 9 | 19.5 | > 75.8 |  | Activity [12]: 20%; CC50 at 96 h [11]: 94.7 µM
Cc1nc(C(NC(=O)C(=O)Nc2ccc(Cl)cc2)C2CCCN2)sc1CO (mixture of isomers) | 4.8 | 15.4 |  |  | CC50 [3]: 12.4 µM; CC50 at 96 h [11]: 45 µM
CC1(C)CC(NC(=O)C(=O)Nc2ccc(Cl)cc2)CC(C)(C)N1 | 4.2 | 8 | > 60 |  | Activity [13]: 10%; CC50 at 96 h [11]: 150 µM
Cc1nc(C(NC(=O)C(=O)Nc2ccc(C(F)(F)F)cc2)C2CCCCN2)sc1CO (mixture of isomers) | 10.3 | 4.6 | > 75.5 |  | Activity [14]: 10%
Cc1nc(C(NC(=O)C(=O)Nc2ccc(F)cc2)C2CCCCN2)sc1CO (mixture of isomers) | 7.4 | 47.9 | > 90 | > 113 | Activity [15]: 0%
Cc1nc(C(NC(=O)C(=O)Nc2ccc(Cl)c(F)c2)C2CCCCN2)sc1CO (mixture of isomers) | 1.6 | 3.8 | 58.4 |  | CC50 at 96 h [11]: 77.8 µM

Structure (SMILES) | IC50 [1] [µM] | IC50 [2] [µM] | CC50 at 72 h [3] [µM] | CC50 (MT2 [4]) [µM] | further results
Cc1nc(C(NC(=O)C(=O)Nc2ccc(Cl)cc2)C2CCNCC2)sc1CO (racemic) | 0.83 | 29.8 | 81 | > 81 | 
Cc1nc(C(NC(=O)C(=O)NC2CCCCCC2)C2CCCCN2)sc1CO (mixture of isomers) | > 90 | 39.3 | > 90 |  | 
CNCC(NC(=O)C(=O)Nc1ccc(Cl)cc1)c1nc(C)c(CCO)s1 (racemic) | 2.8 | 24.3 |  | > 43 | CC50 [3]: 16.6 µM
Cc1nc(C(NC(=O)C(=O)Nc2ccc(Cl)cc2)C2CCCN2)sc1CCO (mixture of isomers) | 4.2 | 16.2 | 4.9 |  | CC50 at 96 h [11]: 42 µM
Cc1nc(C(NC(=O)C(=O)Nc2ccc(F)c(F)c2)C2CCCCN2)sc1CCO (mixture of isomers) | 8.2 | 24.1 | > 78.2 |  | Activity [16]: 10%
Cc1ccc(NC(=O)C(=O)NC(c2nc(C)c(CCO)s2)C2CCCCN2)cc1F (mixture of isomers) | 1.66 | 3.7 | > 85 |  | Activity [17]: 40%; CC50 at 96 h [11]: 85 µM
COC(=O)[C@@H]1C[C@@H](NC(=O)C(=O)Nc2ccc(Cl)cc2)[C@H](c2ccccc2)N1 | > 99.6 | > 24.9 | > 99.6 |  | 
Cc1ccc(NC(=O)C(=O)NC(c2nc(C)c(CO)s2)C2CCCCN2)cc1F (mixture of isomers) | 2.7 | 5.3 | > 88 |  | Activity [18]: 0%; Activity (MT2 [19]): 30%
Cc1ccc(NC(=O)C(=O)NC(c2nc(C)c(CO)s2)C2CCCCN2)c(F)c1 (mixture of isomers) | > 88 | 66 | > 88 | > 109 | 
C[C@@H](NC(=O)C(=O)Nc1ccc(Cl)cc1)[C@H](c1ccccc1)N1CCOCC1 | > 99.6 | > 24.9 | > 99.6 |  | 
Cc1nc(C(NC(=O)C(=O)Nc2ccc(Cl)cc2)C2CCNCC2)sc1CCO (racemic) | 1 | 30.5 | 85.4 | > 78.5 | 
Cc1nc(C(NC(=O)C(=O)Nc2ccc(Cl)cc2)C2CCCCN2)sc1CCO (mixture of isomers) | 4.6 | 4.2 |  | > 62 | Activity (MT2 [20]): 0%; CC50 [3]: 32.8 µM
Cc1nc(C(NC(=O)C(=O)Nc2ccc(Cl)cc2)C2CCCCN2C)sc1CCO (mixture of isomers) | 1.9 | 28.6 |  |  | CC50 [3]: 36 µM; CC50 at 96 h [11]: 88 µM
CC(=O)c1ccc(NC(=O)C(=O)NC(c2nc(C)c(CCO)s2)C2CCCCN2)cc1 (mixture of isomers) | > 77.3 | 24.5 | > 77.3 | > 48.3 | 
Cc1nc(C(NC(=O)C(=O)NC2CCCCCC2)C2CCCCN2)sc1CCO (mixture of isomers) | > 88 | 19.6 | > 88 |  | CC50 at 96 h [11]: 60 µM
Cc1nc(C(NC(=O)C(=O)Nc2ccc(F)cc2F)C2CCCCN2)sc1CCO (mixture of isomers) | > 84 | > 105 | > 84 | > 105 | 
CCn1cc(NC(=O)C(=O)Nc2ccc(Cl)cc2)cn1 | 5.9 | 11.9 | 8 | 10.7 | 
